In ChEMBL document CHEMBL1153791, “Acylphloroglucinol, biyouyanagiol, biyouyanagin B, and related spiro-lactones from Hypericum chinense” (J Nat Prod, 2009):
≈ marks a conversion by molar mass, not a printed value.

Key:
Type in all cases: functional, cell-based
[1] = tested on: MCF7; assay: Cytotoxicity against human MCF7 cells after 48 hrs by MTT assay; settings: MCF7, 48 h
[2] = tested on: KB; assay: Cytotoxicity against human KB cells after 48 hrs by MTT assay
[3] = tested on: K562; assay: Cytotoxicity against human doxorubicin-resistant K562 cells after 48 hrs by MTT assay; settings: K562, 48 h
[4] = Cytotoxicity against human multidrug resistant KB-C2 cells after 48 hrs by MTT assay in the presence of colchicine; settings: KB-C2, 48 h
[5] = tested on: COLO 205; assay: Cytotoxicity against human COLO205 cells after 48 hrs by MTT assay; settings: COLO 205, 48 h
[6] = tested on: K562; assay: Cytotoxicity against human K562 cells after 48 hrs by MTT assay; settings: K562, 48 h
[7] = Cytotoxicity against human multidrug resistant KB-C2 cells after 48 hrs by MTT assay; settings: KB-C2, 48 h

Row | Structure (SMILES) | IC50 [1] [µg/mL] | IC50 [2] [µg/mL] | IC50 [3] [µg/mL] | IC50 [4] [µg/mL] | IC50 [5] [µg/mL] | IC50 [6] [µg/mL] | IC50 [7] [µg/mL]
1 | COC(=O)[C@@]1(O)C(=O)[C@](C)(CC=C(C)C)C(=O)C12C[C@H]1[C@@H](CC[C@@]1(C)O)[C@@](C)(O)C2 (some centres undefined) [BIYOUYANAGIOL] | > 100 | > 100 | > 100 | 47.8 | > 100 | > 100 | > 100
2 | C=C[C@@]1(C)COC(=O)[C@]12O[C@]1(c3ccccc3)[C@H](C2=O)[C@H]2[C@H]([C@H](C)CCC=C(C)C)CC=C(C)[C@H]21 [BIYOUYANAGIN A] | 27.1 (≈ 57.1 µM) | 38.8 (≈ 81.7 µM) | 16.6 (≈ 35 µM) | 16.8 | 26.9 (≈ 56.7 µM) | 31.1 (≈ 65.5 µM) | 36.2 (≈ 76.3 µM)
3 | COc1cc(/C=C/C(=O)OC[C@H](Cc2ccc(O)c(OC)c2)[C@H](CO)Cc2ccc(O)c(OC)c2)ccc1O [HANULTARIN] | 18.9 (≈ 35.1 µM) | 33.7 (≈ 62.6 µM) | 33.1 (≈ 61.5 µM) | 20.9 | 16.8 (≈ 31.2 µM) | 35.2 (≈ 65.4 µM) | 20.7 (≈ 38.4 µM)
4 | C=C[C@@]1(C)COC(=O)[C@]12OC(c1ccccc1)=CC2=O [HYPERLACTONE C] | 77.7 (≈ 287 µM) | > 100 | 32.8 (≈ 121 µM) | 51.8 | 58.5 (≈ 216 µM) | > 100 | > 100
5 | COc1cccc2c1C(=O)c1c(O)c3c(c(O)c1C2=O)C[C@@](O)(C(C)=O)C[C@@H]3O[C@H]1C[C@H](N)[C@H](O)[C@H](C)O1 [DAUNORUBICIN] | 0.33 (≈ 0.626 µM) | 0.22 (≈ 0.417 µM) | 15.2 (≈ 28.8 µM) |  | 0.5 (≈ 0.948 µM) | 0.45 (≈ 0.853 µM) | > 100
6 | C=C[C@@]1(C)COC(=O)[C@]12OC([C@H](C)CC)=CC2=O [HYPERLACTONE A] | > 100 | > 100 | 47.1 (≈ 188 µM) | 70.8 | > 100 | > 100 | > 100
7 | COc1cc(/C=C/C(=O)OC[C@H](Cc2ccc(O)c(OC)c2)[C@H](COC(=O)/C=C/c2ccc(O)c(OC)c2)Cc2ccc(O)c(OC)c2)ccc1O | 5.9 (≈ 8.25 µM) | 14.1 (≈ 19.7 µM) | 19.9 (≈ 27.8 µM) | 4.5 | 5.2 (≈ 7.28 µM) | 17.3 (≈ 24.2 µM) | 9.4 (≈ 13.2 µM)
8 | C=C[C@@]1(C)COC(=O)C1C(=O)/C=C(\O)c1ccccc1 (some centres undefined) [HYPERLACTONE D] | 52.9 (≈ 194 µM) | 61 (≈ 224 µM) | 20 (≈ 73.4 µM) | 24.6 | 37.5 (≈ 138 µM) | 47.8 (≈ 176 µM) | 22.3 (≈ 81.9 µM)
9 | C=C[C@@]1(C)COC(=O)C1(O)C(=O)/C=C(\O)c1ccccc1 (some centres undefined) | 62.1 (≈ 215 µM) | > 100 | 33.7 (≈ 117 µM) | 53.1 | 79 (≈ 274 µM) | > 100 | > 100
10 | OC[C@H]1[C@@H](Cc2ccc3c(c2)OCO3)CO[C@@H]1c1ccc2c(c1)OCO2 [DIHYDROSESAMIN] | 62.1 (≈ 174 µM) | > 100 | 33.7 (≈ 94.6 µM) | 53.1 | 79 (≈ 222 µM) | > 100 | > 100
